# Assay results taken from US20260263452A1, “ONCOLOGY COMBINATION THERAPY AND METHODS OF USE” (BeyondSpring Pharmaceuticals, Inc., priority 2023, published 2026).
# Test system: MDA-MB-231 human breast cancer
# Experiment: MDA-MB-231 human breast cancer SubQ xenograft model in BALB/c nude mice
# Type: in vivo
# Conditions: Day 38, abemaciclib 50 mg/kg PO QD, plinabulin 7.5 mg/kg IP BIW; for mean tumor volume: n=8 per group, vehicle control 1235±24 mm^3
# Description: The anti-tumor activity of plinabulin as a single agent compared to co-administration with abemaciclib was evaluated in an MDA-MB-231 human breast cancer SubQ xenograft model in BALB/c nude mice. Plinabulin was provided as a 4 mg/mL solution in 40% Solutol, 60% Propylene Glycol. […] Abemaciclib was provided as a crystalline solid. Prior to dosing, an appropriate amount of abemaciclib solid was weighed out and dissolved in 1% hydroxyethyl cellulose in 25 mM phosphate buffer, pH=2, to a concentration of 5 mg/mL to deliver a dose of 50 mg/kg in a 10 mL/kg dosing volume. […] The vehicle control was dosed intraperitoneally at a 10 mL/kg dose volume. The MDA-MB-231 human breast tumor cell line was maintained in L-15 medium supplemented with 10% FBS at 37° C. in an atmosphere of 100% air. Cells were sub-cultured upon reaching about 90% confluence by trypsin-EDTA treatment. Cells in an exponential growth phase were harvested using a trypsin-EDTA mixture. Female BALB/c nude mice were received at 6-8 weeks of age. All mice were acclimated for 7 days prior to study initiation. The mice were housed in housed in polycarbonate cages and maintained under specific pathogen-free conditions. The mice were fed irradiated dry granule food and sterile drinking water was freely available. Mice were inoculated subcutaneously on the right flank with 0.1 mL of L-15 medium/Martigel (1:1) mixture containing a suspension of 1×10^7 cells/mouse of live MDA-MB-231 tumor cells. […] Twenty-eight days following inoculation, thirty-two mice with tumor sizes of 101-124 mm^3 were randomized into four groups of eight mice, each with a mean tumor size of 114 mm^3. Tumor volumes and body weights were recorded when the mice were randomized and were taken twice weekly thereafter. Clinical observations were made daily. Dosing was performed via intraperitoneal injection for vehicle control and plinabulin and administered via oral gavage for abemaciclib as described below in Table 1. Plinabulin was administered one hour post dose of abemaciclib on combined dosing days. [table] […] All mice are included in the TGI calculations. [formula] All statistical analyses in the xenograft study are performed with GraphPad Prism software. p≤0.05 was considered statistically significant. […] A two-tailed Student's t-test with Welch's correction was also used to verify any differences between each group and the vehicle control, as well as single agents and their respective combination groups.
Compound,TGI (tumor growth inhibition) compared to the Vehicle Control group [%],mean tumor volume [mm^3]
"CC(C)(C)c1[nH]cnc1/C=c1\[nH]c(=O)/c(=C/c2ccccc2)[nH]c1=O [plinabulin, (3Z,6Z)-3-benzylidene-6-{[5-(2-methyl-2-propanyl)-1H-imidazol-4-yl]methylene}-2,5-piperazinedione]",26,942±114
CCN1CCN(Cc2ccc(Nc3ncc(F)c(-c4cc(F)c5nc(C)n(C(C)C)c5c4)n3)nc2)CC1 [abemaciclib],59,572±101
